Laboratory results taken from ChEMBL document CHEMBL3885861, “Open TG-GATES”.

Species: Rattus norvegicus
Assay: Open TG-GATES - Regimen: Daily Repeat
Assay type: toxicity, organism-based, Sprague-Dawley
Design: regimen Daily Repeat, gender Male, age 6 weeks
Conditions: in vivo, po, route gavage; for APTT / Bas / Eos / Fbg / Hb / Ht / Lym / MCH / MCHC / MCV / Mono / Neu / PT / Plat / RBC / Ret / WBC: tissue Blood; for KIDNEY_L / KIDNEY_R / KIDNEY_TOTAL: tissue Kidney; for LIVER: tissue Liver; for A/G / ALP / ALT / AST / BUN / CRE / Ca / Cl / DBIL / GLC / IP / K / LDH / Na / PL / RALB / TBIL / TC / TG / TP / gamma-GTP: tissue Plasma
[1] = 300 mg/kg, 72 h, dose level Middle, time 3 day
[2] = 300 mg/kg, […], dose level Middle, time 7 day
[3] = 300 mg/kg, […], dose level Middle, time 14 day
[4] = 300 mg/kg, […], dose level Middle, time 28 day
[5] = 1000 mg/kg, 72 h, dose level High, time 3 day
[6] = 1000 mg/kg, […], dose level High, time 7 day
[7] = 1000 mg/kg, […], dose level High, time 14 day
[8] = 1000 mg/kg, […], dose level High, time 28 day

CC(=O)[C@@]1(O)CC[C@H]2[C@@H]3C=C(Cl)C4=CC(=O)CC[C@]4(C)[C@H]3CC[C@@]21C [CHLORMADINONE]
TERMINAL_BW [1]: 228.1 g
APTT [1]: 27.6 s
Bas [1]: 0%
Eos [1]: 1%
Fbg [1]: 334.4 mg/dL
Hb [1]: 14.1 g/dL
Ht [1]: 42.3%
Lym [1]: 76.8%
MCH [1]: 20.6 pg
MCHC [1]: 33.2%
MCV [1]: 62 fL
Mono [1]: 3.4%
Neu [1]: 18.4%
PT [1]: 14.8 s
Plat [1]: 130.2 x10_4/uL
RBC [1]: 684 x10_4/ul
Ret [1]: 5.9%
WBC [1]: 96.1 x10_2/uL
KIDNEY_L [1]: 1 g
KIDNEY_R [1]: 1 g
KIDNEY_TOTAL [1]: 1.9 g
LIVER [1]: 11 g
A/G [1]: 1.2
ALP [1]: 1623.2 IU/L
ALT [1]: 51 IU/L
AST [1]: 76.4 IU/L
BUN [1]: 17.2 mg/dL
CRE [1]: 0.2 mg/dL
Ca [1]: 11 mg/dL
Cl [1]: 106 meq/L
DBIL [1]: 0 mg/dL
GLC [1]: 194.2 mg/dL
IP [1]: 7.5 mg/dL
K [1]: 4.6 meq/L
LDH [1]: 243.2 IU/L
Na [1]: 141.4 meq/L
PL [1]: 172.4 mg/dL
RALB [1]: 3.2 g/dL
TBIL [1]: 0.008 mg/dL
TC [1]: 77 mg/dL
TG [1]: 181.4 mg/dL
TP [1]: 5.8 g/dL
gamma-GTP [1]: 1.4 IU/L
TERMINAL_BW [2]: 257.8 g
TERMINAL_BW [3]: 297.5 g
TERMINAL_BW [4]: 346.1 g
APTT [2]: 29.5 s
Bas [2]: 0%
Eos [2]: 0.6%
Fbg [2]: 335.8 mg/dL
Hb [2]: 14.7 g/dL
Ht [2]: 42.9%
Lym [2]: 86%
MCH [2]: 20.8 pg
MCHC [2]: 34.2%
MCV [2]: 60.9 fL
Mono [2]: 2.4%
Neu [2]: 10.2%
PT [2]: 14.8 s
Plat [2]: 129.9 x10_4/uL
RBC [2]: 704.2 x10_4/ul
Ret [2]: 4.3%
WBC [2]: 119.7 x10_2/uL
APTT [3]: 28.4 s
Bas [3]: 0%
Eos [3]: 1%
Fbg [3]: 326.6 mg/dL
Hb [3]: 15.2 g/dL
Ht [3]: 44.7%
Lym [3]: 78%
MCH [3]: 19.3 pg
MCHC [3]: 34%
MCV [3]: 56.8 fL
Mono [3]: 2.6%
Neu [3]: 17.6%
PT [3]: 14.8 s
Plat [3]: 105.8 x10_4/uL
RBC [3]: 787.4 x10_4/ul
Ret [3]: 3.1%
WBC [3]: 84.6 x10_2/uL
APTT [4]: 28 s
Bas [4]: 0%
Eos [4]: 1%
Fbg [4]: 313.2 mg/dL
Hb [4]: 16.2 g/dL
Ht [4]: 46.4%
Lym [4]: 82.8%
MCH [4]: 18.9 pg
MCHC [4]: 34.9%
MCV [4]: 54 fL
Mono [4]: 2.2%
Neu [4]: 12.8%
PT [4]: 14.8 s
Plat [4]: 92.9 x10_4/uL
RBC [4]: 860 x10_4/ul
Ret [4]: 2%
WBC [4]: 105.1 x10_2/uL
KIDNEY_L [2]: 1 g
KIDNEY_R [2]: 1 g
KIDNEY_TOTAL [2]: 2.1 g
KIDNEY_L [3]: 1.1 g
KIDNEY_R [3]: 1.1 g
KIDNEY_TOTAL [3]: 2.2 g
KIDNEY_L [4]: 1.2 g
KIDNEY_R [4]: 1.2 g
KIDNEY_TOTAL [4]: 2.4 g
LIVER [2]: 12.6 g
LIVER [3]: 13.1 g
LIVER [4]: 13.4 g
A/G [2]: 1.1
ALP [2]: 1379.4 IU/L
ALT [2]: 53 IU/L
AST [2]: 70.8 IU/L
BUN [2]: 19.4 mg/dL
CRE [2]: 0.2 mg/dL
Ca [2]: 10.9 mg/dL
Cl [2]: 105.2 meq/L
DBIL [2]: 0 mg/dL
GLC [2]: 194.6 mg/dL
IP [2]: 7.4 mg/dL
K [2]: 4.6 meq/L
LDH [2]: 198.8 IU/L
Na [2]: 139.4 meq/L
PL [2]: 182.2 mg/dL
RALB [2]: 3.2 g/dL
TBIL [2]: 0 mg/dL
TC [2]: 91.2 mg/dL
TG [2]: 205.8 mg/dL
TP [2]: 6 g/dL
gamma-GTP [2]: 1.8 IU/L
A/G [3]: 1.1
ALP [3]: 1447.6 IU/L
ALT [3]: 44.2 IU/L
AST [3]: 67 IU/L
BUN [3]: 20 mg/dL
CRE [3]: 0.2 mg/dL
Ca [3]: 10.5 mg/dL
Cl [3]: 106.8 meq/L
DBIL [3]: 0 mg/dL
GLC [3]: 196.2 mg/dL
IP [3]: 6.9 mg/dL
K [3]: 4.5 meq/L
LDH [3]: 161.4 IU/L
Na [3]: 141.4 meq/L
PL [3]: 171.6 mg/dL
RALB [3]: 3.1 g/dL
TBIL [3]: 0.002 mg/dL
TC [3]: 83.8 mg/dL
TG [3]: 173 mg/dL
TP [3]: 6 g/dL
gamma-GTP [3]: 1.8 IU/L
A/G [4]: 1.1
ALP [4]: 1248.8 IU/L
ALT [4]: 61.6 IU/L
AST [4]: 76.6 IU/L
BUN [4]: 19.4 mg/dL
CRE [4]: 0.2 mg/dL
Ca [4]: 10.6 mg/dL
Cl [4]: 105.6 meq/L
DBIL [4]: 0 mg/dL
GLC [4]: 186.8 mg/dL
IP [4]: 6 mg/dL
K [4]: 4 meq/L
LDH [4]: 156.2 IU/L
Na [4]: 141.2 meq/L
PL [4]: 171 mg/dL
RALB [4]: 3.3 g/dL
TBIL [4]: 0.012 mg/dL
TC [4]: 89.2 mg/dL
TG [4]: 153.6 mg/dL
TP [4]: 6.3 g/dL
gamma-GTP [4]: 2.4 IU/L
TERMINAL_BW [5]: 236.9 g
APTT [5]: 28 s
Bas [5]: 0%
Eos [5]: 1.2%
Fbg [5]: 321.4 mg/dL
Hb [5]: 13.9 g/dL
Ht [5]: 42%
Lym [5]: 76.8%
MCH [5]: 20.2 pg
MCHC [5]: 33.1%
MCV [5]: 61 fL
Mono [5]: 3%
Neu [5]: 18.2%
PT [5]: 14.4 s
Plat [5]: 126.4 x10_4/uL
RBC [5]: 690 x10_4/ul
Ret [5]: 6.9%
WBC [5]: 122 x10_2/uL
KIDNEY_L [5]: 1 g
KIDNEY_R [5]: 1 g
KIDNEY_TOTAL [5]: 2 g
LIVER [5]: 12.4 g
A/G [5]: 1.2
ALP [5]: 1434.6 IU/L
ALT [5]: 53 IU/L
AST [5]: 71 IU/L
BUN [5]: 17.4 mg/dL
CRE [5]: 0.2 mg/dL
Ca [5]: 11 mg/dL
Cl [5]: 105.2 meq/L
DBIL [5]: 0 mg/dL
GLC [5]: 191.8 mg/dL
IP [5]: 7.7 mg/dL
K [5]: 4.8 meq/L
LDH [5]: 190.2 IU/L
Na [5]: 140.4 meq/L
PL [5]: 198.4 mg/dL
RALB [5]: 3.3 g/dL
TBIL [5]: 0.004 mg/dL
TC [5]: 95.2 mg/dL
TG [5]: 154.2 mg/dL
TP [5]: 6 g/dL
gamma-GTP [5]: 2 IU/L
TERMINAL_BW [6]: 245 g
TERMINAL_BW [7]: 286.4 g
TERMINAL_BW [8]: 342.2 g
APTT [6]: 30 s
Bas [6]: 0%
Eos [6]: 0.8%
Fbg [6]: 327.6 mg/dL
Hb [6]: 15.1 g/dL
Ht [6]: 44.5%
Lym [6]: 84.4%
MCH [6]: 20.2 pg
MCHC [6]: 34%
MCV [6]: 59.5 fL
Mono [6]: 2.2%
Neu [6]: 11.8%
PT [6]: 15 s
Plat [6]: 127.9 x10_4/uL
RBC [6]: 748.8 x10_4/ul
Ret [6]: 3.8%
WBC [6]: 120.3 x10_2/uL
APTT [7]: 28.9 s
Bas [7]: 0%
Eos [7]: 1%
Fbg [7]: 322 mg/dL
Hb [7]: 15.2 g/dL
Ht [7]: 45%
Lym [7]: 80%
MCH [7]: 19.7 pg
MCHC [7]: 33.9%
MCV [7]: 58.1 fL
Mono [7]: 2.8%
Neu [7]: 14.4%
PT [7]: 14.7 s
Plat [7]: 100.3 x10_4/uL
RBC [7]: 774.6 x10_4/ul
Ret [7]: 2.6%
WBC [7]: 106.2 x10_2/uL
APTT [8]: 29.7 s
Bas [8]: 0%
Eos [8]: 1%
Fbg [8]: 308 mg/dL
Hb [8]: 15.8 g/dL
Ht [8]: 45.5%
Lym [8]: 86.4%
MCH [8]: 18.2 pg
MCHC [8]: 34.9%
MCV [8]: 52.1 fL
Mono [8]: 2.2%
Neu [8]: 9.6%
PT [8]: 15.1 s
Plat [8]: 91.7 x10_4/uL
RBC [8]: 873 x10_4/ul
Ret [8]: 1.9%
WBC [8]: 94.9 x10_2/uL
KIDNEY_L [6]: 1 g
KIDNEY_R [6]: 1 g
KIDNEY_TOTAL [6]: 1.9 g
KIDNEY_L [7]: 1.1 g
KIDNEY_R [7]: 1.1 g
KIDNEY_TOTAL [7]: 2.2 g
KIDNEY_L [8]: 1.2 g
KIDNEY_R [8]: 1.3 g
KIDNEY_TOTAL [8]: 2.5 g
LIVER [6]: 11 g
LIVER [7]: 13.1 g
LIVER [8]: 14.6 g
A/G [6]: 1.3
ALP [6]: 1456.8 IU/L
ALT [6]: 45.8 IU/L
AST [6]: 71.4 IU/L
BUN [6]: 19.6 mg/dL
CRE [6]: 0.2 mg/dL
Ca [6]: 10.8 mg/dL
Cl [6]: 106.8 meq/L
DBIL [6]: 0 mg/dL
GLC [6]: 187.2 mg/dL
IP [6]: 7.2 mg/dL
K [6]: 4.6 meq/L
LDH [6]: 194 IU/L
Na [6]: 140 meq/L
PL [6]: 163.8 mg/dL
RALB [6]: 3.3 g/dL
TBIL [6]: 0.006 mg/dL
TC [6]: 83.2 mg/dL
TG [6]: 136 mg/dL
TP [6]: 6 g/dL
gamma-GTP [6]: 2 IU/L
A/G [7]: 1.2
ALP [7]: 1187.6 IU/L
ALT [7]: 45.2 IU/L
AST [7]: 71.2 IU/L
BUN [7]: 18.6 mg/dL
CRE [7]: 0.2 mg/dL
Ca [7]: 10.7 mg/dL
Cl [7]: 107.6 meq/L
DBIL [7]: 0 mg/dL
GLC [7]: 195 mg/dL
IP [7]: 6.8 mg/dL
K [7]: 4.4 meq/L
LDH [7]: 160.8 IU/L
Na [7]: 142 meq/L
PL [7]: 171.2 mg/dL
RALB [7]: 3.3 g/dL
TBIL [7]: 0.004 mg/dL
TC [7]: 81.2 mg/dL
TG [7]: 177.4 mg/dL
TP [7]: 6.1 g/dL
gamma-GTP [7]: 2 IU/L
A/G [8]: 1
ALP [8]: 1076 IU/L
ALT [8]: 58.4 IU/L
AST [8]: 70.8 IU/L
BUN [8]: 17.4 mg/dL
CRE [8]: 0.2 mg/dL
Ca [8]: 10.5 mg/dL
Cl [8]: 105.2 meq/L
DBIL [8]: 0 mg/dL
GLC [8]: 194.8 mg/dL
IP [8]: 6.1 mg/dL
K [8]: 3.9 meq/L
LDH [8]: 156 IU/L
Na [8]: 142 meq/L
PL [8]: 190.4 mg/dL
RALB [8]: 3.4 g/dL
TBIL [8]: 0.006 mg/dL
TC [8]: 97.6 mg/dL
TG [8]: 161.6 mg/dL
TP [8]: 6.6 g/dL
gamma-GTP [8]: 2.6 IU/L
